Experimental data reported in patent US7030134B2, “Pyrazolopyridinyl pyridine and pyrimidine therapeutic compounds” (SmithKline Beecham Corporation, priority 2001, dated 2006).

Test system: HSV-1
Assay: HSV-1 replication in infected Vero 76 cells, DNA hybridization capture assay
Type: cell-based, herpes simplex virus 1
Settings: Human alphaherpesvirus 1; HSV-1 (MOI=0.001) in Vero 76 cells, 40–48 hours incubation, HSV DNA hybridization chemiluminescence readout; read-out: IC50
Experimental: Vero 76 cells were maintained in MEM with Earle's salts, L-glutamine, 8% FBS (Hyclone, A-1111-L) and 100 units/mL Penicillin-100 μg/mL Streptomycin. For assay conditions, FBS was reduced to 2%. Cells are seeded into 96-well tissue culture plates at a density of 5×10^4 cells/well after being incubated for 45 min at 37° C. in the presence of HSV-1 or HSV-2 (MOI=0.001). Test compounds are added to the wells and the plates are incubated at 37° C. for 40–48 hours. Cell lysates are prepared as follows: media was removed and replaced with 150 μL/well 0.2 N NaOH with 1% Igepal CA 630 or NP-40. Plates were incubated up to 14 days at room temperature in a humidified chamber to prevent evaporation.
For the detection probe, a gel-purified, digoxigenin-labeled, […] PCR fragment of the HSV UL-15 sequence was utilized. PCR conditions included 0.5 μM primers, 180 μM dTTP, 20 μM dUTP-digoxigenin (Boehringer Mannheim 1558706), 200 μM each of dATP, dCTP, and dGTP, 1×PCR Buffer II (Perkin Elmer), 2.5 mM MgCl2, 0.025 units/μL of AmpliTaq Gold polymerase (Perkin Elmer), and 5 ng of gel-purified HSV DNA per 100 μL. Extension conditions were 10 min at 95° C., followed by 30 cycles of 95° C. for 1 min, 55° C. for 30 sec, and 72° C. for 2 min. The amplification was completed with a 10-min incubation at 72° C. Primers were selected to amplify a 728 bp probe spanning a section of the HSV1 UL 15 open reading frame (nucleotides 249–977). Single-stranded transcripts were purified with Promega M13 Wizard kits. The final product was mixed 1:1 with a mixture of 6 M GuSCN, 100 mM EDTA and 200 μg/mL herring sperm DNA and stored at 4° C.
The capture DNA plasmid (HSV UL13 region in pUC) was linearized by cutting with Xba I, denatured for 15 min at 95° C. and diluted immediately into Reacti-Bind DNA Coating Solution (Pierce, 17250, diluted 1:1 with TE buffer, pH 8) at 1 ng/μL 75 μL/well were added to Corning (#3922 or 9690) white 96-well plates and incubated at room temperature for at least 4 hrs before washing twice with 300 μL/well 0.2×SSC/0.05% Tween-20 (SSC/T buffer). The plates were then incubated overnight at room temperature with 150 μL/well 0.2 N NaOH, 1% IGEPAL and 10 μg/mL herring sperm DNA.
Twenty-seven (27) μL of cell lysate was combined with 45 μL of hybridization solution (final concentration:3M GuSCN, 50 mM EDTA, 100 μg/ml salmon sperm DNA, 5× Denhardt's solution, 0.25×APE, and 5 ng of the digoxigenin-labeled detection probe). APE is 1.5 M NH4-acetate, 0.15 M NH4H2 phosphate, and 5 mM EDTA adjusted to pH 6.0. Mineral oil (50 μL) was added to prevent evaporation. The hybridization plates were incubated at 95° C. for 10 minutes to denature the DNA, then incubated at 42° C. overnight. The wells were washed 6× with 300 μL/well SSC/T buffer then incubated with 75 μL/well anti-digoxigenin-HRP-conjugated antibody (Boehringer Mannheim 1207733, 1:5000 in TE) for 30 min at room temperature. The wells were washed 6× with 300 μL/well with PBS/0.05% Tween-20 before 75 μL/well SuperSignal LBA substrate (Pierce) was added. The plates were incubated at room temperature for 30 minutes and chemiluminescence was measured in a Wallac Victor reader.
The following results were obtained for HSV-1.

| Compound | IC50 |
| --- | --- |
| Fc1ccc(-c2nn3c(NC4CCCC4)c(C(F)(F)F)ccc3c2-c2ccnc(N3CCCC3)n2)cc1 [Example 1, N-Cyclopentyl-2-(4-fluorophenyl)-3-[2-(1-pyrrolidinyl)-4-pyrimidinyl)-6-(trifluoromethyl)pyrazolo[1,5-a]pyridin-7-amine] | 5300 nM |
| Fc1ccc(-c2nn3c(NC4CCCC4)c(C(F)(F)F)ccc3c2-c2ccnc(NC3CCCC3)n2)cc1 [Example 2, N-Cyclopentyl-3-[2-(cyclopentylamino)-4-pyrimidinyl]-2-(4-fluorophenyl)-6-(trifluoromethyl)pyrazolo[1,5-a]pyridin-7-amine] | 3300 nM |
| CCOC(=O)c1ccc2c(-c3ccnc(NC4CCCC4)n3)c(-c3ccc(F)cc3)nn2c1NC1CCCC1 [Example 3, Ethyl 7-(cyclopentylamino)-3-[2-(cyclopentylamino)-4-pyrimidinyl]-2-(4-fluorophenyl)pyrazolo[1,5-a]pyridine-6-carboxylate] | 6300 nM |
| O=C(O)c1ccc2c(-c3ccnc(NC4CCCC4)n3)c(-c3ccc(F)cc3)nn2c1NC1CCCC1 [Example 4, 7-(Cyclopentylamino)-3-[2-(cyclopentylamino)-4-pyrimidinyl]-2-(4-fluorophenyl)pyrazolo[1,5-a]pyridine-6-carboxylic acid] | 500 nM |
| O=C(c1ccc2c(-c3ccnc(NC4CCCC4)n3)c(-c3ccc(F)cc3)nn2c1NC1CCCC1)N1CCCC1 [Example 5, N-Cyclopentyl-3-[2-(cyclopentylamino)-4-pyrimidinyl]-2-(4-fluorophenyl)-6-(1-pyrrolidinylcarbonyl)pyrazolo[1,5-a]pyridin-7-amine] | 4100 nM |
| CN(C)C(=O)c1ccc2c(-c3ccnc(NC4CCCC4)n3)c(-c3ccc(F)cc3)nn2c1NC1CCCC1 [Example 6, 7-(Cyclopentylamino)-3-[2-(cyclopentylamino)-4-pyrimidinyl]-2-(4-fluorophenyl)-N,N-dimethylpyrazolo[1,5-a]pyridine-6-carboxamide] | 4000 nM |
| O=C(NO)c1ccc2c(-c3ccnc(NC4CCCC4)n3)c(-c3ccc(F)cc3)nn2c1NC1CCCC1 [Example 7, 7-(Cyclopentylamino)-3-[2-(cyclopentylamino)-4-pyrimidinyl]-2-(4-fluorophenyl)-N-hydroxypyrazolo[1,5-a]pyridine-6-carboxamide] | 1000 nM |
| O=C(NCCN1CCOCC1)c1ccc2c(-c3ccnc(NC4CCCC4)n3)c(-c3ccc(F)cc3)nn2c1NC1CCCC1 [Example 8, 7-(Cyclopentylamino)-3-[2-(cyclopentylamino)-4-pyrimidinyl]-2-(4-fluorophenyl)-N-[2-(4-morpholinyl)ethyl]pyrazolo[1,5-a]pyridine-6-carboxamide] | 5000 nM |
| O=C(NCCCn1ccnc1)c1ccc2c(-c3ccnc(NC4CCCC4)n3)c(-c3ccc(F)cc3)nn2c1NC1CCCC1 [Example 9, 7-(Cyclopentylamino)-3-[2-(cyclopentylamino)-4-pyrimidinyl]-2-(4-fluorophenyl)-N-[3-(1H-imidazol-1-yl)propyl]pyrazolo[1,5-a]pyridine-6-carboxamide] | 500 nM |
| O=C(NC(CO)CO)c1ccc2c(-c3ccnc(NC4CCCC4)n3)c(-c3ccc(F)cc3)nn2c1NC1CCCC1 [Example 10, 7-(Cyclopentylamino)-3-[2-(cyclopentylamino)-4-pyrimidinyl]-2-(4-fluorophenyl)-N-[2-hydroxy-1-(hydroxymethyl)ethyl]pyrazolo[1,5-a]pyridine-6-carboxamide] | 4200 nM |
| OCc1ccc2c(-c3ccnc(NC4CCCC4)n3)c(-c3ccc(F)cc3)nn2c1NC1CCCC1 [Example 11, [7-(Cyclopentylamino)-3-[2-(cyclopentylamino)-4-pyrimidinyl]-2-(4-fluorophenyl)pyrazolo[1,5-a]pyridin-6-yl]methanol] | 970 nM |
| Fc1ccc(-c2nn3c(Cl)cc(Cl)cc3c2-c2ccnc(NC3CCCC3)n2)cc1 [Example 12, N-Cyclopentyl-4-[5,7-dichloro-2-(4-fluorophenyl)pyrazolo[1,5-a]pyridin-3-yl]-2-pyrimidinamine] | 7000 nM |
| Fc1ccc(-c2nn3c(NC4CCCC4)cc(Cl)cc3c2-c2ccnc(NC3CCCC3)n2)cc1 [Example 13, N-{4-[5-Chloro-7-(cyclopentylamino)-2-(4-fluorophenyl)pyrazolo[1,5-a]pyridin-3-yl]-2-pyrimidinyl}-N-cyclopentylamine] | 170 nM |
| Fc1ccc(-c2nn3c(NC4CCCC4)cc(NC4CCCC4)cc3c2-c2ccnc(NC3CCCC3)n2)cc1 [Example 14, N^5,N^7-Dicyclopentyl-3-[2-(cyclopentylamino)-4-pyrimidinyl]-2-(4-fluorophenyl)pyrazolo[1,5-a]pyridine-5,7-diamine] | 240 nM |
| CC(C)Nc1cc(Cl)cc2c(-c3ccnc(NC4CCCC4)n3)c(-c3ccc(F)cc3)nn12 [Example 15, 5-Chloro-3-[2-(cyclopentylamino)-4-pyrimidinyl]-2-(4-fluorophenyl)-N-isopropylpyrazolo[1,5-a]pyridin-7-amine] | 1450 nM |
| CC(C)Nc1cc(NC(C)C)n2nc(-c3ccc(F)cc3)c(-c3ccnc(NC4CCCC4)n3)c2c1 [Example 16, 3-[2-(Cyclopentylamino)-4-pyrimidinyl]-2-(4-fluorophenyl)-N^5,N^7-diisopropylpyrazolo[1,5-a]pyridine-5,7-diamine] | 550 nM |
| COc1ccc(-c2nn3c(Cl)cc(Cl)cc3c2-c2ccnc(NC3CCCC3)n2)cc1 [Example 17, N-Cyclopentyl-4-[5,7-dichloro-2-(4-methoxyphenyl)pyrazolo[1,5-a]pyridin-3-yl]-2-pyrimidinamine] | 5200 nM |
| COc1ccc(-c2nn3c(NC4CCCC4)cc(Cl)cc3c2-c2ccnc(NC3CCCC3)n2)cc1 [Example 18, N-{4-[5-Chloro-7-(cyclopentylamino)-2-(4-methoxyphenyl)pyrazolo-[1,5-a]pyridin-3-yl]-2-pyrimidinyl}-N-cyclopentylamine] | 250 nM |
| Cc1cccc(-c2nn3c(NC4CCCC4)cc(Cl)cc3c2-c2ccnc(NC3CCCC3)n2)c1 [Example 19, 5-Chloro-N-cyclopentyl-3-[2-(cyclopentylamino)pyrimidin-4-yl]-2-(3-methylphenyl)pyrazolo[1,5-a]pyridin-7-amine] | 200 nM |
| Cc1cccc(-c2nn3c(NC4CC4)cc(Cl)cc3c2-c2ccnc(NC3CCCC3)n2)c1 [Example 20, 5-Chloro-3-[2-(cyclopentylamino)pyrimidin-4-yl]-N-cyclopropyl-2-(3-methylphenyl)pyrazolo[1,5-a]pyridin-7-amine] | 500 nM |
| Cc1cccc(-c2nn3c(NC4CCCC4)cc(Cl)cc3c2-c2ccnc(NC3CC3)n2)c1 [Example 21, 5-Chloro-N-cyclopentyl-3-[2-(cyclopropylamino)pyrimidin-4-yl]-2-(3-methylphenyl)pyrazolo[1,5-a]pyridin-7-amine] | 600 nM |
| Fc1ccc(-c2nn3c(NC4CC4)cc(Cl)cc3c2-c2ccnc(NC3CCCC3)n2)cc1 [Example 22, 5-Chloro-3-[2-(cyclopentylamino)-4-pyrimidinyl]-N-cyclopropyl-2-(4-fluorophenyl)pyrazolo[1,5-a]pyridin-7-amine] | 200 nM |
| CN1CCN(c2cc(Cl)cc3c(-c4ccnc(NC5CCCC5)n4)c(-c4ccc(F)cc4)nn23)CC1 [Example 23, 4-[5-Chloro-2-(4-fluorophenyl)-7-(4-methyl-1-piperazinyl)pyrazolo[1,5-a]pyridin-3-yl]-N-cyclopentyl-2-pyrimidinamine] | 500 nM |
